In the Kinase Knowledgebase extract (Sharma et al. 2016):

Target: PIK3CG (human) (UniProt P48736)
Assay: Inhibition of PIK3CG Kinase Activity

Sequence of PIK3CG (human) (P48736 whole entry, looked up): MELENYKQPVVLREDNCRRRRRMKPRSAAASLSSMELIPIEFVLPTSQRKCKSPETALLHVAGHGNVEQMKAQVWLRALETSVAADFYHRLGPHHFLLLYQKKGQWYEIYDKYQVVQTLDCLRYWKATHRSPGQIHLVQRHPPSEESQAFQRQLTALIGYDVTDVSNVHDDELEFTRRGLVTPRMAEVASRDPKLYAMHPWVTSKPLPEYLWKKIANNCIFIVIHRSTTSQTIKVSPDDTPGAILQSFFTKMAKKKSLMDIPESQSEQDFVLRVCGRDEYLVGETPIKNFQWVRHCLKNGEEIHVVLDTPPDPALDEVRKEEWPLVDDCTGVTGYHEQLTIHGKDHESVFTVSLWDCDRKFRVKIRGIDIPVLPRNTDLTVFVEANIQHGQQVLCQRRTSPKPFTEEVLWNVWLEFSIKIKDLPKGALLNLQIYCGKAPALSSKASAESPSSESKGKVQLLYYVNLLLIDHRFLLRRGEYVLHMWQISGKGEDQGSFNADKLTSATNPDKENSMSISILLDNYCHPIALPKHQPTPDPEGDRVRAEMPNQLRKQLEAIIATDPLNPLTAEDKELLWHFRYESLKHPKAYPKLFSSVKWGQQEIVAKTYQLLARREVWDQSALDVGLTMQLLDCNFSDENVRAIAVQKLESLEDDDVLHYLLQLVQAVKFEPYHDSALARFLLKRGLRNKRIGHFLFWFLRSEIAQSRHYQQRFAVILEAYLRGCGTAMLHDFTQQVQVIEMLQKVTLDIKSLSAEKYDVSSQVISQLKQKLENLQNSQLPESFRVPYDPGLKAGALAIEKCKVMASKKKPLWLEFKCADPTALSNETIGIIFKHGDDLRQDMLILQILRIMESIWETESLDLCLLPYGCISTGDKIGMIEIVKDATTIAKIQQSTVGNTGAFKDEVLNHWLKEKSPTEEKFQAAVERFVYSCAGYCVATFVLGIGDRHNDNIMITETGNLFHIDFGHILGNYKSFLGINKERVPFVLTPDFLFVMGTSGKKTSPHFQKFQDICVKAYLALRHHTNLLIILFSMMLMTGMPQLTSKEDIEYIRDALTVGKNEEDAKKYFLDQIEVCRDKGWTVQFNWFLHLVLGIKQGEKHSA

| IC50 | SMILES |
| --- | --- |
| 160 nM | COc1ccc2oc(C(=O)Nc3nnn[nH]3)c(OCC3CCCC3)c2c1 |
| 1460 nM | CCC1(COc2c(C(=O)Nc3nnn[nH]3)oc3ccc(OC)cc23)COC1 |
| 41 nM | COc1ccc2oc(C(=O)Nc3nnn[nH]3)c(OC3CC(C)CC(C)C3)c2c1 (centres undefined) |
| 690 nM | COc1ccc2oc(C(=O)Nc3nnn[nH]3)c(OCC3CC3)c2c1 |
| 370 nM | COc1ccc2oc(C(=O)Nc3nnn[nH]3)c(OC3CC(C)CCC3C)c2c1 (centres undefined) |
| 290 nM | COc1ccc2oc(C(=O)Nc3nnn[nH]3)c(OC3CC(C)CC3C)c2c1 (centres undefined) |
| 97 nM | COc1ccc2oc(C(=O)Nc3nnn[nH]3)c(OC3CCCCCC3)c2c1 |
| 220 nM | COc1ccc2oc(C(=O)Nc3nnn[nH]3)c(OCC3(C)CC3)c2c1 |
| 335 nM | COc1ccc2oc(C(=O)Nc3nnn[nH]3)c(OC3CC4CCC3C4)c2c1 (centres undefined) |
| 185 nM | COc1ccc2oc(C(=O)Nc3nnn[nH]3)c(OC3CCCCCCC3)c2c1 |
| 255 nM | COc1ccc2oc(C(=O)Nc3nnn[nH]3)c(OC3CCCCC3)c2c1 |
| 325 nM | COc1ccc2oc(C(=O)Nc3nnn[nH]3)c(OC3CCC4CCCCC4C3)c2c1 (centres undefined) |
| 315 nM | COc1ccc2oc(C(=O)Nc3nnn[nH]3)c(OCC3CC=CCC3)c2c1 (centres undefined) |
| 150 nM | COc1ccc2oc(C(=O)Nc3nnn[nH]3)c(OC(C)C3CCCC3)c2c1 (centres undefined) |
| 175 nM | COc1ccc2oc(C(=O)Nc3nnn[nH]3)c(OCC3CCC3)c2c1 |
| 185 nM | COc1ccc2oc(C(=O)Nc3nnn[nH]3)c(OCC3CC=CCC3C)c2c1 (centres undefined) |
| 380 nM | COc1ccc2oc(C(=O)Nc3nnn[nH]3)c(OC3CCC(C4CCCCC4)CC3)c2c1 (centres undefined) |
| 305 nM | CCC(Oc1c(C(=O)Nc2nnn[nH]2)oc2ccc(OC)cc12)C1CCCCC1 (centres undefined) |
| 400 nM | COc1ccc2oc(C(=O)Nc3nnn[nH]3)c(OC3CCC3)c2c1 |
| 840 nM | COc1ccc2oc(C(=O)Nc3nnn[nH]3)c(OCC3CCCCC3)c2c1 |
| 67 nM | COc1ccc2oc(C(=O)Nc3nnn[nH]3)c(OCC3C4CCC(C4)C3C)c2c1 (centres undefined) |
| 1180 nM | COc1ccc2oc(C(=O)Nc3nnn[nH]3)c(OC3CCOCC3)c2c1 |
| 108 nM | COc1ccc2oc(C(=O)Nc3nnn[nH]3)c(OCC3CCCCCC3)c2c1 |
| 1460 nM | CC1(OCOc2c(C(=O)Nc3nnn[nH]3)oc3ccc(Cl)cc23)CC1 |
| 3640 nM | COc1ccc2oc(C(=O)Nc3nnn[nH]3)c(OCC3(C)COC3)c2c1 |
| 1460 nM | COc1ccc2oc(C(=O)Nc3nnn[nH]3)c(OC(C)C3CC3)c2c1 (centres undefined) |
| 1050 nM | COc1ccc2oc(C(=O)Nc3nnn[nH]3)c(OC3CCCC3)c2c1 |
| 3320 nM | O=C(Nc1nnn[nH]1)c1oc2ccc(Cl)cc2c1OC1CCCC1 |

| SMILES | IC50 |
| --- | --- |
| COc1ccc2oc(C(=O)Nc3nnn[nH]3)c(OC3CCC(C)C(C)C3)c2c1 (centres undefined) | 76 nM |
